In brackets after ≈: the same amount, converted by molar mass. Read-outs that look alike come from different tables or passages of the source. Marks after values point to notes of the source that are not given here.
Assays:
ABTS assay = type: biochemical; conditions: 50 μM, methanolic solutions, 7 min of reaction time
Description: ABTS assay was conducted according to the procedure of Re et al.. […] The absorbance of the solutions was measured with a UV–Vis spectrophotometer at 734 nm against methanol (the blank). The ability to scavenge ABTS^•+ cation radicals was expressed as the %I of ABTS^•+ and calculated according to the aforementioned equation.

[1] = FRAP assay (ferric-reducing antioxidant power); type: biochemical; parameters: key: (-): Negative values were obtained for these acids; conditions: concentration of 50 μM, methanolic solutions
Description: FRAP assay was carried out as described in [42]. […] After 8 min of incubation at 23 °C, the absorbance at 595 nm was measured against the blank (containing 0.4 mL of methanol instead of the sample). Ferric-reducing antioxidant activity was expressed as Fe(II) ion equivalents (μM) using the calibration curve obtained for FeSO4 (the standard curve equation: y = 3.4303x − 0.1058; R^2 = 0.9984).

[2] = system: Salmonella enteritidis (NCTC 4776); test: MIC by serial dilution in agar medium; type: cell-based; conditions: Salmonella enterica; Salmonella enteritidis; read-out: MIC
Description: (§1) The following bacterial strains were used in this study: Escherichia coli (PCM 2857), Pseudomonas aeruginosa (PCM 2720), Bacillus subtilis (PCM 2850), Staphylococcus aureus (PCM 2267), Salmonella enteritidis (NCTC 4776), and Candida albicans (PCM 2566-FY). The microbial strains were bought from the Polish Collection of Microorganisms (Wroclaw, Poland) or the American Type Culture Collection.
(§2) The MIC (minimal inhibitory concentration) was determined by serial dilution of the tested compound in an agar medium, to which the appropriate inoculum of microorganisms was then added and incubated. Escherichia coli, Pseudomonas aeruginosa, Staphylococcus aureus, Bacillus subtilis, Salmonella enteritidis, and Candida albicans were grown overnight and then resuspended in physiological saline to an optical density at 600 nm (OD = 600) of 0.60, corresponding to 5.0 × 10^8 CFU/mL. Bacteria (0.1 mL of the reconstituted suspension) were seeded onto sterile Mueller–Hinton agar plates, to which previously suitable amounts of the tested compounds were added to reach the desired concentration. Tested chemicals were dissolved in DMSO solution. Negative controls were agar plates, to which DMSO was added, while positive controls were plates with gentamycin (in the case of bacteria) or flucanozole (in the case of fungi). The plates were incubated at 37 °C for 24 h. The lowest concentration without visible bacterial growth was determined as the MIC.

[3] = system: Bacillus subtilis (PCM 2850); test: MIC by serial dilution in agar medium; type: cell-based; conditions: read-out: MIC
Description: as §1, with “Collection. Bacteria (0.1 mL of the reconstituted suspension) were seeded onto sterile Mueller–Hinton agar plates (Biomaxima), to which previously suitable amounts of the tested compounds were added to give the desired concentration.” for “Collection.”
as §2

[4] = system: Candida albicans (PCM 2566-FY); test: MIC by serial dilution in agar medium; type: cell-based; conditions: read-out: MIC
Description: as §1, with “Collection. Bacteria (0.1 mL of the reconstituted suspension) were seeded onto sterile Mueller–Hinton agar plates (Biomaxima), to which previously suitable amounts of the tested compounds were added to give the desired concentration.” for “Collection.”
as §2

[5] = system: Escherichia coli (PCM 2857); test: MIC by serial dilution in agar medium; type: cell-based; conditions: read-out: MIC
Description: as §1, with “Collection. Bacteria (0.1 mL of the reconstituted suspension) were seeded onto sterile Mueller–Hinton agar plates (Biomaxima), to which previously suitable amounts of the tested compounds were added to give the desired concentration.” for “Collection.”
as §2

[6] = system: Pseudomonas aeruginosa (PCM 2720); test: MIC by serial dilution in agar medium; type: cell-based; conditions: read-out: MIC
Description: as §1, with “Collection. Bacteria (0.1 mL of the reconstituted suspension) were seeded onto sterile Mueller–Hinton agar plates (Biomaxima), to which previously suitable amounts of the tested compounds were added to give the desired concentration.” for “Collection.”
as §2

[7] = system: Staphylococcus aureus (PCM 2267); test: MIC by serial dilution in agar medium; type: cell-based; conditions: read-out: MIC
Description: as §1, with “Collection. Bacteria (0.1 mL of the reconstituted suspension) were seeded onto sterile Mueller–Hinton agar plates (Biomaxima), to which previously suitable amounts of the tested compounds were added to give the desired concentration.” for “Collection.”
as §2

[8] = system: E. coli, P. aeruginosa, S. aureus, B. subtilis, S. enteritidis, and C. albicans; test: MIC, stated for all tested strains together; type: cell-based; conditions: all of the tested strains
Description: as §1, with “Collection. Bacteria (0.1 mL of the reconstituted suspension) were seeded onto sterile Mueller–Hinton agar plates (Biomaxima), to which previously suitable amounts of the tested compounds were added to give the desired concentration.” for “Collection.”
as §2

[9] = Cytotoxicity, neutral red (NR) assay; type: cell-based, human; conditions: human, 48 h treatment, neutral red assay
Description: Briefly, MCF-7 cells were cultured in EMEM (Biological Industries, Israel) medium supplemented with 10% fetal calf serum (Gibco). MDA-MB-231 cells were cultured in Leibovitz‘s L15 (Biological Industries, Beit HaEmek, Israel) medium supplemented with 10% fetal calf serum (Gibco). The MCF-7 cells were incubated in a 5% CO2 atmosphere at 37 °C, whereas the MDA-231 cells were incubated in a 100% air atmosphere at 37 °C.
Cytotoxicity evaluation was conducted to assess the impact of hydroxybenzoic acids on the proliferation of MCF-7 and MDA-MB-231 cells, which was measured via neutral red (NR) assay. In brief, cells were seeded in 96-well microplates (TPP, Switzerland) at a density of 2 × 10^4 cells/well in 100 μL of culture medium. At least three independent experiments in six replicate wells were conducted per concentration. Twenty-four hours after cell seeding, cells were treated with increasing concentrations of hydroxybenzoic acids (0.02–5 mM) for forty-eight hours. After treatment, cells were incubated for 3 h at 37 °C with 100 µL of neutral red solution (stock solution of NR) (Sigma-Aldrich), and then 5 mg/mL of PBS was diluted 1:100 in cell culture medium, incubated for 12 h at 37 °C, and centrifuged to remove any undissolved NR powder. […] After 15 min of gentle shaking, optical density was read at 540 nm with an Infinite M200 plate reader spectrophotometer (Tecan, Austria).

[10] = Lipophilicity via RP-HPLC; type: physicochemical
Description: The analyses were carried out on the following chromatographic columns: RP-18e Purospher STAR (C18), 150 mm × 4.0 mm, 5 µm, (Merck, Darmstadt, Germany); RP-8e Purospher STAR (C8), 150 mm × 4.6 mm, 5 µm, (Merck, Darmstadt, Germany); Zorbax Eclipse XDB-CN (CN), 150 mm × 4.6 mm, 5 µm, (Agilent Technologies, Santa Clara, CA, USA); Nucleosil Phenyl (PHE), 250 mm × 4.6 mm, 7 µm, (Supelco, Bellefonte, PA, USA); and Regis Rexchrom IAM.PC.DD.2 (IAM), 100 mm × 4.6 mm, 10 µm, (Regis Technologies Inc., Morton Grave, IL, USA). The experimental conditions and the calculations were as described in [46].

[11] = CABTS = 7 mM, t = 6 min, ref 73; read-out: ABTS, IC50; cited from earlier work
[12] = C = 0,001 mg/mL, λ = 593 nm, t = 30 min; cited from earlier work
[13] = ref 102; cited from earlier work
[14] = cited from earlier work

Q: What does the source list for `O=C(O)c1ccc(O)cc1O` [2,4-DHB, 2,4-Dihydroxybenzoic acid]?
A: Inhibition of ABTS•+ radicals (%I) (ABTS assay): 16.17%; FRAP [1]: (-) *; MIC [2]: 2000 µg/mL (≈ 13 mM); MIC [3]: 2000 µg/mL (≈ 13 mM); MIC [4]: 2000 µg/mL (≈ 13 mM); MIC [5]: 2000 µg/mL (≈ 13 mM); MIC [6]: 2000 µg/mL (≈ 13 mM); MIC [7]: 2000 µg/mL (≈ 13 mM); MIC [8]: 2000 µg/mL (≈ 13 mM); IC50 at 48 h ([9]; read-out: Cytotoxicity (mM) in Cell Line MCF-7, IC50): > 5 mM; IC50 at 48 h ([9]; read-out: Cytotoxicity (mM) in Cell Line MDA-MB-231, IC50): 4.77 mM; log kw ([10]; C8 column): 1.81; ϕ0 ([10]; C8 column): 1.38; log kw ([10]; C18 column): 2.66; ϕ0 ([10]; C18 column): 0.57; log kw ([10]; CN column): 2.06; ϕ0 ([10]; CN column): 1.15; log kw ([10]; IAM column): 1.14; ϕ0 ([10]; IAM column): 1.00; log kw ([10]; PHE column): 1.39; ϕ0 ([10]; PHE column): 1.05; IC50 [11]: 0.169 mM; FRAP [12]: ≈ 0.012 (C = 0,001 mg/mL), λ = 593 nm, t = 30 min) [73] μM Fe^2+; LogPexp. [13]: 1.63 [102]; pKaexp. ([14]; at 25 °C): 3.11; pKaexp. ([14]; ref 104): 3.11; pKaexp. ([14]; ref 105): 3.1

From publication PMC8466373, “Plant-Derived and Dietary Hydroxybenzoic Acids—A Comprehensive Study of Structural, Anti-/Pro-Oxidant, Lipophilic, Antimicrobial, and Cytotoxic Activity in MDA-MB-231 and MCF-7 Cell Lines” (Nutrients, 2021)
